Measured values as given in patent US12325677B2, “Carboxylic acid-type lipid, and lipid particle and lipid membrane each comprising carboxylic acid-type lipid” (Toray Industries, Inc., priority 2018, dated 2025).

What was measured:
guinea pig-derived PRP = test: Evaluation of platelet aggregation capacity of hemostatic material (in vitro), protein assay of attached platelets; format: cell-based; conditions: lipid supported on the base part in place of DHSG, Asp-DHSG, Glu-DHSG and AG-DHSG
Method: From the hemostatic materials D1, D2, D3 and D4, a base part (fiber sheet part) supporting DHSG, Asp-DHSG, Glu-DHSG and AG-DHSG, respectively, was taken out. To a 12-well plate, the base part (fiber sheet part) that was taken out and 1 mL of guinea pig-derived PRP (2.0×10^5/μL) prepared by the abovementioned method were added. Thereafter, ADP ([…], 100 μL) that activates platelets was added, and after allowing to stand at room temperature for 5 minutes, the mixture was washed with 1 mL of DPBS twice. Thereafter, to dissolve platelets attached to the base part (fiber sheet part), 500 μL of 0.5% Triton X was added, followed by allowing to stand at room temperature for 1 hour to obtain a platelet lysate. To a 96-well plate, […] of the platelet lysate prepared by the abovementioned method and 150 μL of PIERCE (trademark) 660 nm Protein Assay Kit were added, followed by allowing to stand for 5 minutes. By measuring absorbance at 660 nm using a microplate reader, proteins were quantitatively determined, and the determination results were used as an index of the count of platelets which were not washed away and were attached to the fiber sheet. The results in FIG. 4 are relative values when the platelet count in using the hemostatic material D1 is regarded as 1. […]

[1] = Thickness of lipid membrane from SEM observation image; format: physicochemical; conditions: lipid supported on fiber sheet base (hemostatic materials E1 to E4), SEM ×5,000
Method: The thickness of the lipid membrane is preferably 10 to 1,000 nm, more preferably 30 to 500 nm, and still more preferably 60 to 240 nm. The method of measuring the lipid membrane is as follows. The lipid membrane is observed with a scanning electron microscope (SEM). The thickness of five points optionally selected in the SEM observation image is measured, and the mean is regarded as the thickness of the lipid membrane.
An SEM observation image (×1,000) of the base complex before supporting a lipid is shown in FIG. 5, and SEM observation images (×1,000) of the hemostatic materials E1 to E4 are shown in FIGS. 6 to 9, respectively.

| Structure (SMILES) | Platelets detected on the base part (fiber sheet part) as a result of washing (guinea pig-derived PRP) | Thickness of the lipid membrane [1] [nm] |
| --- | --- | --- |
| CCCCCCCCCCCCCCCC(=O)OC[C@H](COP(=O)([O-])OCC[N+](C)(C)C)OC(=O)CCCCCCCCCCCCCCC [DPPC, 1,2-dipalmitoyl-sn-glycero-3-phosphatidylcholine] | no platelets were detected |  |
| CCCCCCCCCCCCCCCCOC(=O)CCC(NC(=O)CCC(=O)NC(CC(=O)O)C(=O)O)C(=O)OCCCCCCCCCCCCCCCC (centres unmarked) [Asp-DHSG] |  | 153 |
| CCCCCCCCCCCCCCCCOC(=O)CCC(NC(=O)CCC(=O)NC(CCC(=O)O)C(=O)O)C(=O)OCCCCCCCCCCCCCCCC (centres unmarked) [Glu-DHSG] |  | 187 |
| CCCCCCCCCCCCCCCCOC(=O)CCC(NC(=O)CCC(=O)O)C(=O)OCCCCCCCCCCCCCCCC [DHSG, 1,5-Dihexadecyl-N-Succinyl-L-Glutamate, reference compound] |  | 131 |
| CCCCCCCCCCCCCCCCOC(=O)CCC(NC(=O)CCC(=O)NC(CCC(=O)NC(CC(=O)O)C(=O)O)C(=O)NC(CC(=O)O)C(=O)O)C(=O)OCCCCCCCCCCCCCCCC (centres unmarked) [AG-DHSG] |  | 124 |
